{"source": "the supplement of paper PMC6045584", "key": {"GEFITINIB [1]": {"compound": "T1, COc1cc2ncnc(Nc3ccc(F)c(Cl)c3)c2cc1OCCCN1CCOCC1 [GEFITINIB]", "experiment": "surviving fraction relative to DMSO-only wells; higher = less growth inhibition", "conditions": "exposure time: 5 days", "how_it_was_run": "(§1)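 After seeding at 250–500 cells per well in 384-well plates and a 24-hour wait, log-phase tumour cell lines were exposed without interruption for five days to inhibitors at 0.5, 1, 5, 10, 50, 100, 500 and 1000 nM. CellTiter-Glo luminescence was recorded after 10 minutes at room temperature. Viability is reported as surviving fraction, the luminescence normalised to the median of DMSO-only wells.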"}, "OSI-906 [2]": {"compound": "T2, C[C@]1(O)C[C@@H](c2nc(-c3ccc4ccc(-c5ccccc5)nc4c3)c3c(N)nccn32)C1 [OSI-906]", "experiment": "surviving fraction relative to DMSO-only wells; higher = less growth inhibition", "conditions": "exposure time: 5 days", "how_it_was_run": "as §1"}, "CELECOXIB [3]": {"compound": "T3, Cc1ccc(-c2cc(C(F)(F)F)nn2-c2ccc(S(N)(=O)=O)cc2)cc1 [CELECOXIB]", "experiment": "surviving fraction relative to DMSO-only wells; higher = less growth inhibition", "conditions": "exposure time: 5 days", "how_it_was_run": "as §1"}, "CARBOPLATIN [4]": {"compound": "T4, O=C(O)C1(C(=O)O)CCC1.[NH2-].[NH2-].[Pt+2] [CARBOPLATIN]", "experiment": "surviving fraction relative to DMSO-only wells; higher = less growth inhibition", "conditions": "exposure time: 5 days", "how_it_was_run": "as §1"}, "PACLITAXEL": {"compound": "CC(=O)O[C@H]1C(=O)[C@@]2(C)[C@H]([C@H](OC(=O)c3ccccc3)[C@]3(O)C[C@H](OC(=O)[C@H](O)[C@@H](NC(=O)c4ccccc4)c4ccccc4)C(C)=C1C3(C)C)[C@]1(OC(C)=O)CO[C@@H]1C[C@@H]2O [PACLITAXEL]", "experiment": "area under dose-response curve of surviving fraction (unscaled, Aref=0) (surviving fraction x log10(nM)); higher = more resistant", "conditions": "exposure time: 5 days; dose range 0.5-1000 nM", "how_it_was_run": "(§2)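 Each tumour cell line was screened three times in 384-well plates, receiving eight inhibitor concentrations from 0.5 to 1000 nM for five days. CellTiter-Glo luminescence gave viability, normalised to DMSO-only wells. Using the drc R package, surviving fractions were fitted with 3-parameter logistic dose-response curves, and the unscaled activity area over log10 dose (Aref = 0) was taken as the area under the curve.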"}, "[5]": {"compound": "CC(=O)c1c(C)c2cnc(Nc3ccc(N4CCNCC4)cn3)nc2n(C2CCCC2)c1=O", "experiment": "area under dose-response curve of surviving fraction (unscaled, Aref=0) (surviving fraction x log10(nM)); higher = more resistant", "conditions": "exposure time: 5 days; dose range 0.5-1000 nM", "how_it_was_run": "as §2"}, "CAMPTOTHECIN": {"compound": "CC[C@@]1(O)C(=O)OCc2c1cc1n(c2=O)Cc2cc3ccccc3nc2-1 [CAMPTOTHECIN]", "experiment": "area under dose-response curve of surviving fraction (unscaled, Aref=0) (surviving fraction x log10(nM)); higher = more resistant", "conditions": "exposure time: 5 days; dose range 0.5-1000 nM", "how_it_was_run": "as §2"}, "YM155": {"compound": "COCC[n+]1c2c(n(Cc3cnccn3)c1C)C(=O)c1ccccc1C2=O [YM155]", "experiment": "area under dose-response curve of surviving fraction (unscaled, Aref=0) (surviving fraction x log10(nM)); higher = more resistant", "conditions": "exposure time: 5 days; dose range 0.5-1000 nM", "how_it_was_run": "as §2"}, "GEFITINIB [6]": {"compound": "T1, GEFITINIB", "experiment": "area under dose-response curve of surviving fraction (unscaled, Aref=0) (surviving fraction x log10(nM)); higher = more resistant", "conditions": "exposure time: 5 days; dose range 0.5-1000 nM", "how_it_was_run": "as §2"}, "OSI-906 [7]": {"compound": "T2, OSI-906", "experiment": "area under dose-response curve of surviving fraction (unscaled, Aref=0) (surviving fraction x log10(nM)); higher = more resistant", "conditions": "exposure time: 5 days; dose range 0.5-1000 nM", "how_it_was_run": "as §2"}, "CELECOXIB [8]": {"compound": "T3, CELECOXIB", "experiment": "area under dose-response curve of surviving fraction (unscaled, Aref=0) (surviving fraction x log10(nM)); higher = more resistant", "conditions": "exposure time: 5 days; dose range 0.5-1000 nM", "how_it_was_run": "as §2"}, "CARBOPLATIN [9]": {"compound": "T4, CARBOPLATIN", "experiment": "area under dose-response curve of surviving fraction (unscaled, Aref=0) (surviving fraction x log10(nM)); higher = more resistant", "conditions": "exposure time: 5 days; dose range 0.5-1000 nM", "how_it_was_run": "as §2"}}, "note": "± gives the standard deviation of the averaged measurements."}
{"test system": "SKBR3 BREAST", "values": [{"measurement": "surviving fraction", "setting": "GEFITINIB [1]; 0.5 nM", "value": "1 ± 0.18"}, {"measurement": "surviving fraction", "setting": "GEFITINIB [1]; 1 nM", "value": "1.04 ± 0.14"}, {"measurement": "surviving fraction", "setting": "GEFITINIB [1]; 5 nM", "value": "1.04 ± 0.089"}, {"measurement": "surviving fraction", "setting": "GEFITINIB [1]; 10 nM", "value": "1.02 ± 0.11"}, {"measurement": "surviving fraction", "setting": "GEFITINIB [1]; 50 nM", "value": "1 ± 0.062"}, {"measurement": "surviving fraction", "setting": "GEFITINIB [1]; 100 nM", "value": "0.844 ± 0.026"}, {"measurement": "surviving fraction", "setting": "GEFITINIB [1]; 500 nM", "value": "0.361 ± 0.0087"}, {"measurement": "surviving fraction", "setting": "GEFITINIB [1]; 1000 nM", "value": "0.249 ± 0.03"}, {"measurement": "surviving fraction", "setting": "OSI-906 [2]; 0.5 nM", "value": "0.752 ± 0.012"}, {"measurement": "surviving fraction", "setting": "OSI-906 [2]; 1 nM", "value": "0.765 ± 0.027"}, {"measurement": "surviving fraction", "setting": "OSI-906 [2]; 5 nM", "value": "0.814 ± 0.11"}, {"measurement": "surviving fraction", "setting": "OSI-906 [2]; 10 nM", "value": "0.841 ± 0.0095"}, {"measurement": "surviving fraction", "setting": "OSI-906 [2]; 50 nM", "value": "1.05 ± 0.11"}, {"measurement": "surviving fraction", "setting": "OSI-906 [2]; 100 nM", "value": "0.871 ± 0.11"}, {"measurement": "surviving fraction", "setting": "OSI-906 [2]; 500 nM", "value": "0.786 ± 0.07"}, {"measurement": "surviving fraction", "setting": "OSI-906 [2]; 1000 nM", "value": "0.681 ± 0.062"}, {"measurement": "surviving fraction", "setting": "CELECOXIB [3]; 0.5 nM", "value": "1.15 ± 0.096"}, {"measurement": "surviving fraction", "setting": "CELECOXIB [3]; 1 nM", "value": "1.11 ± 0.11"}, {"measurement": "surviving fraction", "setting": "CELECOXIB [3]; 5 nM", "value": "1.019 ± 0.0061"}, {"measurement": "surviving fraction", "setting": "CELECOXIB [3]; 10 nM", "value": "1.02 ± 0.085"}, {"measurement": "surviving fraction", "setting": "CELECOXIB [3]; 50 nM", "value": "0.999 ± 0.091"}, {"measurement": "surviving fraction", "setting": "CELECOXIB [3]; 100 nM", "value": "1.07 ± 0.042"}, {"measurement": "surviving fraction", "setting": "CELECOXIB [3]; 500 nM", "value": "0.996 ± 0.17"}, {"measurement": "surviving fraction", "setting": "CELECOXIB [3]; 1000 nM", "value": "1.08 ± 0.063"}, {"measurement": "surviving fraction", "setting": "CARBOPLATIN [4]; 0.5 nM", "value": "1.01 ± 0.098"}, {"measurement": "surviving fraction", "setting": "CARBOPLATIN [4]; 1 nM", "value": "1.06 ± 0.1"}, {"measurement": "surviving fraction", "setting": "CARBOPLATIN [4]; 5 nM", "value": "1.06 ± 0.11"}, {"measurement": "surviving fraction", "setting": "CARBOPLATIN [4]; 10 nM", "value": "0.987 ± 0.2"}, {"measurement": "surviving fraction", "setting": "CARBOPLATIN [4]; 50 nM", "value": "1.08 ± 0.049"}, {"measurement": "surviving fraction", "setting": "CARBOPLATIN [4]; 100 nM", "value": "1.04 ± 0.073"}, {"measurement": "surviving fraction", "setting": "CARBOPLATIN [4]; 500 nM", "value": "1.07 ± 0.073"}, {"measurement": "surviving fraction", "setting": "CARBOPLATIN [4]; 1000 nM", "value": "1.03 ± 0.14"}, {"measurement": "area under dose-response curve", "setting": "PACLITAXEL", "value": 0.673}, {"measurement": "area under dose-response curve", "setting": "[5]", "value": 3.09}, {"measurement": "area under dose-response curve", "setting": "CAMPTOTHECIN", "value": 1.42}, {"measurement": "area under dose-response curve", "setting": "YM155", "value": 1.36}, {"measurement": "area under dose-response curve", "setting": "GEFITINIB [6]", "value": 2.78}, {"measurement": "area under dose-response curve", "setting": "OSI-906 [7]", "value": 2.71}, {"measurement": "area under dose-response curve", "setting": "CELECOXIB [8]", "value": 3.44}, {"measurement": "area under dose-response curve", "setting": "CARBOPLATIN [9]", "value": 3.44}]}
